Each block holds one compound with its values, some of them ahead of it. Residues, ends and D or L forms follow the SMILES beside them.
Experiments:
Assay type in all cases: functional, cell-based
Set-up in all cases: scale not given: the % may be the effect or the level left
[1] = molecular target: T1, Solute carrier family 15 member 2 (Homo sapiens) (UniProt Q16348); assay: TP_TRANSPORTER: inhibition of Gly-Sar uptake (Gly-Sar: 30 uM, Cephalexin: 10000 uM) in PEPT2-expressing HeLa cells
T1 sequence (whole entry): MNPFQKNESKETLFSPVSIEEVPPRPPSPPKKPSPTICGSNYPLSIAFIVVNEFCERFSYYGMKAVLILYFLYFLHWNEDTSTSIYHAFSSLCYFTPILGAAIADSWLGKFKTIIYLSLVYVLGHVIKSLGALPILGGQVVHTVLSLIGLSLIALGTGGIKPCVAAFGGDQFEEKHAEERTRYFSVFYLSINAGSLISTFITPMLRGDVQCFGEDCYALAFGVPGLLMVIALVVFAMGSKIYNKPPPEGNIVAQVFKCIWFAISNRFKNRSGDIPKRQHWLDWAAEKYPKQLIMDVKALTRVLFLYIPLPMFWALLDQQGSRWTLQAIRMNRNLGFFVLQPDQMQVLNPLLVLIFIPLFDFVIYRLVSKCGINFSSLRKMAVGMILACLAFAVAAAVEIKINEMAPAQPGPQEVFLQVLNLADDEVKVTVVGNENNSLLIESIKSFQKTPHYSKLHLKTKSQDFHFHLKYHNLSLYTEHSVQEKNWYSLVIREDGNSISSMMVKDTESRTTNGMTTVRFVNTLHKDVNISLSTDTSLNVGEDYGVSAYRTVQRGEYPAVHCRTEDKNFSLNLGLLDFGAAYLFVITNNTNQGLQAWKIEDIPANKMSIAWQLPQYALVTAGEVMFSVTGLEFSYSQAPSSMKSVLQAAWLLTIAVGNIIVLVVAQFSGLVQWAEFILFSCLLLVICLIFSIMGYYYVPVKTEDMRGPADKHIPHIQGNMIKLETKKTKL

[2] = molecular target: T1, Solute carrier family 15 member 2 (Homo sapiens); assay: TP_TRANSPORTER: inhibition of Gly-Sar uptake (Gly-Sar: 30 uM, Ala-Gly-Pro: 10000 uM) in PEPT2-expressing HeLa cells
[3] = molecular target: T1, Solute carrier family 15 member 2 (Homo sapiens); assay: TP_TRANSPORTER: inhibition of Gly-Sar uptake (Gly-Sar: 30 uM, Cephadroxil: 10000 uM) in PEPT2-expressing HeLa cells
[4] = molecular target: T1, Solute carrier family 15 member 2 (Homo sapiens); assay: TP_TRANSPORTER: inhibition of Gly-Sar uptake (Gly-Sar: 30 uM, Gly-Phe: 10000 uM) in PEPT2-expressing HeLa cells

- Activity [1]: 0%
Compound: CC1=C(C(=O)O)N2C(=O)[C@@H](NC(=O)[C@H](N)c3ccccc3)[C@H]2SC1

- Activity [2]: 0%
Compound: C[C@H](N)C(=O)NCC(=O)N1CCC[C@H]1C(=O)O (H-Ala-Gly-Pro-OH)

- Activity [3]: 0%
Compound: CC1=C(C(=O)O)N2C(=O)[C@@H](NC(=O)[C@H](N)c3ccc(O)cc3)[C@H]2SC1

- Activity [4]: 0%
Compound: NCC(=O)N[C@@H](Cc1ccccc1)C(=O)O (H-Gly-Phe-OH)

Reference: ChEMBL document CHEMBL2074095, “Molecular cloning of PEPT 2, a new member of the H+/peptide cotransporter family, from human kidney” (Biochim Biophys Acta, 1995)
